Experimental data reported in ChEMBL document CHEMBL1139711, “A novel oxazine ring closure reaction affording (Z)-((E)-2-styrylbenzo[b]furo[3,2-d][1,3]oxazin-4-ylideno)acetaldehydes and their anti-osteoclastic bone resorption activity” (Bioorg Med Chem Lett, 2006).
Activity calls are given as the source filed them. The calls are words filed in the database; no cut-off is given here.

Each compound was assayed on Osteoclast (assay: Bone resorption activity assessed as inhibition of PGE2-stimulated pit formation in ddY mouse osteoclasts).
Type: functional, cell-based

Structure (SMILES) | Activity
CCOC(=O)/C=C/C=C1\OC(/C=C/c2ccccc2)=Nc2c1oc1ccc(Br)cc21 | Active
C[C@]12CC[C@@H]3c4ccc(O)cc4CC[C@H]3[C@@H]1CC[C@@H]2O | Active
O=C/C=C1\OC(/C=C/c2ccccc2)=Nc2c1oc1ccc(Br)cc21 | inactive
